Patent US6358885B1, “Substituted phenylheterocyclic herbicides” (Mississippi State University, priority 1992, dated 2002)

Tests used:
Experiment in all cases: Test F preemergence/postemergence greenhouse plant response rating 0 to 100
Details in all cases: 0 to 100 scale
winter barley = format: in vivo, Hordeum vulgare cv. ‘Igri’
Method in brief: (§1)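 Visual injury ratings compared treated plants with untreated controls roughly 21 to 28 days after application. Test compounds, in a non-phytotoxic solvent, went onto the soil surface before emergence or onto one-to-four-leaf plants. Preemergence used sandy loam; postemergence used a 60:40 sandy loam and potting mix blend.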

chickweed = format: in vivo, Stellaria media
Method in brief: as §1

downy brome = format: in vivo, Bromus tectorum
Method in brief: as §1

galium = format: in vivo, Galium aparine
Method in brief: as §1

green foxtail = format: in vivo, Setaria viridis
Method in brief: as §1

kochia = format: in vivo, Kochia scoparia
Method in brief: as §1

lambsquarters = format: in vivo, Chenopodium album
Method in brief: as §1

speedwell = format: in vivo, Veronica persica
Method in brief: as §1

Compound: C#CCOc1cc(-c2nn3c(c2Br)CCCC3)c(F)cc1Cl [Compound 26]
- Winter Barley plant response rating (winter barley; POSTEMERGENCE, Rate 4 g/ha): 0
- Winter Barley plant response rating (winter barley; POSTEMERGENCE, Rate 8 g/ha): 0
- Winter Barley plant response rating (winter barley; POSTEMERGENCE, Rate 16 g/ha): 0
- Winter Barley plant response rating (winter barley; POSTEMERGENCE, Rate 32 g/ha): 20
- Winter Barley plant response rating (winter barley; POSTEMERGENCE, Rate 64 g/ha): 30
- Winter Barley plant response rating (winter barley; POSTEMERGENCE, Rate 125 g/ha): 30
- Winter Barley plant response rating (winter barley; POSTEMERGENCE, Rate 250 g/ha): 30
- Winter Barley plant response rating (winter barley; PREEMERGENCE, Rate 4 g/ha): 0
- Winter Barley plant response rating (winter barley; PREEMERGENCE, Rate 8 g/ha): 0
- Winter Barley plant response rating (winter barley; PREEMERGENCE, Rate 16 g/ha): 0
- Winter Barley plant response rating (winter barley; PREEMERGENCE, Rate 32 g/ha): 0
- Winter Barley plant response rating (winter barley; PREEMERGENCE, Rate 64 g/ha): 0
- Winter Barley plant response rating (winter barley; PREEMERGENCE, Rate 125 g/ha): 15
- Winter Barley plant response rating (winter barley; PREEMERGENCE, Rate 250 g/ha): 20
- Chickweed plant response rating (chickweed; POSTEMERGENCE, Rate 4 g/ha): 30
- Chickweed plant response rating (chickweed; POSTEMERGENCE, Rate 8 g/ha): 40
- Chickweed plant response rating (chickweed; POSTEMERGENCE, Rate 16 g/ha): 100
- Chickweed plant response rating (chickweed; POSTEMERGENCE, Rate 32 g/ha): 90
- Chickweed plant response rating (chickweed; POSTEMERGENCE, Rate 64 g/ha): 100
- Chickweed plant response rating (chickweed; POSTEMERGENCE, Rate 125 g/ha): 100
- Chickweed plant response rating (chickweed; POSTEMERGENCE, Rate 250 g/ha): 100
- Chickweed plant response rating (chickweed; PREEMERGENCE, Rate 4 g/ha): 0
- Chickweed plant response rating (chickweed; PREEMERGENCE, Rate 8 g/ha): 0
- Chickweed plant response rating (chickweed; PREEMERGENCE, Rate 16 g/ha): 45
- Chickweed plant response rating (chickweed; PREEMERGENCE, Rate 32 g/ha): 50
- Chickweed plant response rating (chickweed; PREEMERGENCE, Rate 64 g/ha): 100
- Chickweed plant response rating (chickweed; PREEMERGENCE, Rate 125 g/ha): 100
- Chickweed plant response rating (chickweed; PREEMERGENCE, Rate 250 g/ha): 100
- Downy brome plant response rating (downy brome; POSTEMERGENCE, Rate 4 g/ha): 0
- Downy brome plant response rating (downy brome; POSTEMERGENCE, Rate 8 g/ha): 0
- Downy brome plant response rating (downy brome; POSTEMERGENCE, Rate 16 g/ha): 0
- Downy brome plant response rating (downy brome; POSTEMERGENCE, Rate 32 g/ha): 0
- Downy brome plant response rating (downy brome; POSTEMERGENCE, Rate 64 g/ha): 30
- Downy brome plant response rating (downy brome; POSTEMERGENCE, Rate 125 g/ha): 50
- Downy brome plant response rating (downy brome; POSTEMERGENCE, Rate 250 g/ha): 10
- Downy brome plant response rating (downy brome; PREEMERGENCE, Rate 4 g/ha): 0
- Downy brome plant response rating (downy brome; PREEMERGENCE, Rate 8 g/ha): 0
- Downy brome plant response rating (downy brome; PREEMERGENCE, Rate 16 g/ha): 0
- Downy brome plant response rating (downy brome; PREEMERGENCE, Rate 32 g/ha): 0
- Downy brome plant response rating (downy brome; PREEMERGENCE, Rate 64 g/ha): 0
- Downy brome plant response rating (downy brome; PREEMERGENCE, Rate 125 g/ha): 30
- Downy brome plant response rating (downy brome; PREEMERGENCE, Rate 250 g/ha): 40
- Galium (1) plant response rating (galium; POSTEMERGENCE, Rate 4 g/ha, stage (1) two to three leaves): 0
- Galium (2) plant response rating (galium; POSTEMERGENCE, Rate 4 g/ha, stage (2) approximately four leaves or initial tillering): 50
- Galium (1) plant response rating (galium; POSTEMERGENCE, Rate 8 g/ha, stage (1) two to three leaves): 0
- Galium (2) plant response rating (galium; POSTEMERGENCE, Rate 8 g/ha, stage (2) approximately four leaves or initial tillering): 50
- Galium (1) plant response rating (galium; POSTEMERGENCE, Rate 16 g/ha, stage (1) two to three leaves): 30
- Galium (2) plant response rating (galium; POSTEMERGENCE, Rate 16 g/ha, stage (2) approximately four leaves or initial tillering): 100
- Galium (1) plant response rating (galium; POSTEMERGENCE, Rate 32 g/ha, stage (1) two to three leaves): 50
- Galium (2) plant response rating (galium; POSTEMERGENCE, Rate 32 g/ha, stage (2) approximately four leaves or initial tillering): 60
- Galium (1) plant response rating (galium; POSTEMERGENCE, Rate 64 g/ha, stage (1) two to three leaves): 100
- Galium (2) plant response rating (galium; POSTEMERGENCE, Rate 64 g/ha, stage (2) approximately four leaves or initial tillering): 100
- Galium (1) plant response rating (galium; POSTEMERGENCE, Rate 125 g/ha, stage (1) two to three leaves): 100
- Galium (2) plant response rating (galium; POSTEMERGENCE, Rate 125 g/ha, stage (2) approximately four leaves or initial tillering): 100
- Galium (1) plant response rating (galium; POSTEMERGENCE, Rate 250 g/ha, stage (1) two to three leaves): 100
- Galium (2) plant response rating (galium; POSTEMERGENCE, Rate 250 g/ha, stage (2) approximately four leaves or initial tillering): 100
- Galium (1) plant response rating (galium; PREEMERGENCE, Rate 4 g/ha, Galium (1)): 0
- Galium (2) plant response rating (galium; PREEMERGENCE, Rate 4 g/ha, Galium (2)): 0
- Galium (1) plant response rating (galium; PREEMERGENCE, Rate 8 g/ha, Galium (1)): 0
- Galium (2) plant response rating (galium; PREEMERGENCE, Rate 8 g/ha, Galium (2)): 20
- Galium (1) plant response rating (galium; PREEMERGENCE, Rate 16 g/ha, Galium (1)): 0
- Galium (2) plant response rating (galium; PREEMERGENCE, Rate 16 g/ha, Galium (2)): 40
- Galium (1) plant response rating (galium; PREEMERGENCE, Rate 32 g/ha, Galium (1)): 100
- Galium (2) plant response rating (galium; PREEMERGENCE, Rate 32 g/ha, Galium (2)): 100
- Galium (1) plant response rating (galium; PREEMERGENCE, Rate 64 g/ha, Galium (1)): 100
- Galium (2) plant response rating (galium; PREEMERGENCE, Rate 64 g/ha, Galium (2)): 100
- Galium (1) plant response rating (galium; PREEMERGENCE, Rate 125 g/ha, Galium (1)): 100
- Galium (2) plant response rating (galium; PREEMERGENCE, Rate 125 g/ha, Galium (2)): 100
- Galium (1) plant response rating (galium; PREEMERGENCE, Rate 250 g/ha, Galium (1)): 100
- Galium (2) plant response rating (galium; PREEMERGENCE, Rate 250 g/ha, Galium (2)): 100
- Green foxtail plant response rating (green foxtail; POSTEMERGENCE, Rate 4 g/ha): 0
- Green foxtail plant response rating (green foxtail; POSTEMERGENCE, Rate 8 g/ha): 0
- Green foxtail plant response rating (green foxtail; POSTEMERGENCE, Rate 16 g/ha): 50
- Green foxtail plant response rating (green foxtail; POSTEMERGENCE, Rate 32 g/ha): 60
- Green foxtail plant response rating (green foxtail; POSTEMERGENCE, Rate 64 g/ha): 70
- Green foxtail plant response rating (green foxtail; POSTEMERGENCE, Rate 125 g/ha): 80
- Green foxtail plant response rating (green foxtail; POSTEMERGENCE, Rate 250 g/ha): 50
- Green foxtail plant response rating (green foxtail; PREEMERGENCE, Rate 4 g/ha): 0
- Green foxtail plant response rating (green foxtail; PREEMERGENCE, Rate 8 g/ha): 0
- Green foxtail plant response rating (green foxtail; PREEMERGENCE, Rate 16 g/ha): 20
- Green foxtail plant response rating (green foxtail; PREEMERGENCE, Rate 32 g/ha): 50
- Green foxtail plant response rating (green foxtail; PREEMERGENCE, Rate 64 g/ha): 100
- Green foxtail plant response rating (green foxtail; PREEMERGENCE, Rate 125 g/ha): 100
- Green foxtail plant response rating (green foxtail; PREEMERGENCE, Rate 250 g/ha): 100
- Kochia plant response rating (kochia; POSTEMERGENCE, Rate 4 g/ha): 100
- Kochia plant response rating (kochia; POSTEMERGENCE, Rate 8 g/ha): 100
- Kochia plant response rating (kochia; POSTEMERGENCE, Rate 16 g/ha): 100
- Kochia plant response rating (kochia; POSTEMERGENCE, Rate 32 g/ha): 100
- Kochia plant response rating (kochia; POSTEMERGENCE, Rate 64 g/ha): 100
- Kochia plant response rating (kochia; POSTEMERGENCE, Rate 125 g/ha): 100
- Kochia plant response rating (kochia; POSTEMERGENCE, Rate 250 g/ha): 100
- Kochia plant response rating (kochia; PREEMERGENCE, Rate 4 g/ha): 0
- Kochia plant response rating (kochia; PREEMERGENCE, Rate 8 g/ha): 0
- Kochia plant response rating (kochia; PREEMERGENCE, Rate 16 g/ha): 80
- Kochia plant response rating (kochia; PREEMERGENCE, Rate 32 g/ha): 80
- Kochia plant response rating (kochia; PREEMERGENCE, Rate 64 g/ha): 100
- Kochia plant response rating (kochia; PREEMERGENCE, Rate 125 g/ha): 100
- Lambsquarters plant response rating (lambsquarters; POSTEMERGENCE, Rate 8 g/ha): 50
- Lambsquarters plant response rating (lambsquarters; POSTEMERGENCE, Rate 16 g/ha): 50
- Lambsquarters plant response rating (lambsquarters; POSTEMERGENCE, Rate 32 g/ha): 100
- Lambsquarters plant response rating (lambsquarters; POSTEMERGENCE, Rate 64 g/ha): 100
- Lambsquarters plant response rating (lambsquarters; POSTEMERGENCE, Rate 125 g/ha): 100
- Lambsquarters plant response rating (lambsquarters; POSTEMERGENCE, Rate 250 g/ha): 100
- Lambsquarters plant response rating (lambsquarters; PREEMERGENCE, Rate 4 g/ha): 0
- Lambsquarters plant response rating (lambsquarters; PREEMERGENCE, Rate 8 g/ha): 70
- Lambsquarters plant response rating (lambsquarters; PREEMERGENCE, Rate 16 g/ha): 80
- Lambsquarters plant response rating (lambsquarters; PREEMERGENCE, Rate 32 g/ha): 100
- Lambsquarters plant response rating (lambsquarters; PREEMERGENCE, Rate 64 g/ha): 100
- Lambsquarters plant response rating (lambsquarters; PREEMERGENCE, Rate 125 g/ha): 100
- Persn Speedwell plant response rating (speedwell; POSTEMERGENCE, Rate 4 g/ha): 60
- Persn Speedwell plant response rating (speedwell; POSTEMERGENCE, Rate 8 g/ha): 60
- Persn Speedwell plant response rating (speedwell; POSTEMERGENCE, Rate 32 g/ha): 100
- Persn Speedwell plant response rating (speedwell; POSTEMERGENCE, Rate 64 g/ha): 100
- Persn Speedwell plant response rating (speedwell; POSTEMERGENCE, Rate 125 g/ha): 100
- Persn Speedwell plant response rating (speedwell; POSTEMERGENCE, Rate 250 g/ha): 100
- Persn Speedwell plant response rating (speedwell; PREEMERGENCE, Rate 4 g/ha): 50
